Test results from patent US7897621B2, “2-trifluoromethylnicotinamide derivatives as HDL-cholesterol raising agents” (Hoffmann-La Roche Inc., priority 2008, dated 2011).

Key:
[1] = system: THP-1 cells; assay: Cholesterol efflux assay; format: cell-based; conditions: Homo sapiens; THP-1 cells differentiated to macrophages, [3H]cholesterol loaded, efflux induced by 10 μg/ml Apolipoprotein AI, 6 hrs; percent stimulation over DMSO
Experimental: The ability of compounds of the invention to stimulate cholesterol efflux is determined in replicate cultures of THP-1 cells in 96-well microplates. Cells are plated at an initial density of 150,000 cells/well and differentiated to macrophages with the addition of PMA (100 ng/ml) for 72 hrs in 10% fetal bovine serum, 3 μI/L of b-mercaptoethanol, RPMI-1640 medium. Cells are washed once with RPMI-1640 and loaded with RPMI-1640 medium containing 2% FCS, 50 μg/ml acetylated LDL, and 10 μCi/ml [^3H]cholesterol for 48 hours at 37° C. After loading the cells are washed once with RPMI-1640 and incubated with the compound of interest from DMSO solutions for an additional 24 hrs in RPMI-1640 medium containing 1 mg/ml fatty acid free-bovine serum albumin (BSA). Upon incubation cells are washed once, and cholesterol efflux is induced by the addition of 10 μg/ml Apolipoprotein Al in RPMI-1640 containing 1 mg/ml BSA and in the presence of the compound for an additional 6 hrs. Following incubation radioactivity is determined in the supernatants and cholesterol efflux is expressed as the percent stimulation over replicate cultures treated only with DMSO. Sigmoidal curves were fitted using the XLfit3 program (ID Business Solutions Ltd. UK) and EC50 values were determined.

[2] = target: cannabinoid CB1 receptor (Homo sapiens, UniProt P21554); assay: CB1-receptor binding assay; conditions: determined as described in WO 2006/106054, page 36
Chain of cannabinoid CB1 receptor (P21554 whole entry): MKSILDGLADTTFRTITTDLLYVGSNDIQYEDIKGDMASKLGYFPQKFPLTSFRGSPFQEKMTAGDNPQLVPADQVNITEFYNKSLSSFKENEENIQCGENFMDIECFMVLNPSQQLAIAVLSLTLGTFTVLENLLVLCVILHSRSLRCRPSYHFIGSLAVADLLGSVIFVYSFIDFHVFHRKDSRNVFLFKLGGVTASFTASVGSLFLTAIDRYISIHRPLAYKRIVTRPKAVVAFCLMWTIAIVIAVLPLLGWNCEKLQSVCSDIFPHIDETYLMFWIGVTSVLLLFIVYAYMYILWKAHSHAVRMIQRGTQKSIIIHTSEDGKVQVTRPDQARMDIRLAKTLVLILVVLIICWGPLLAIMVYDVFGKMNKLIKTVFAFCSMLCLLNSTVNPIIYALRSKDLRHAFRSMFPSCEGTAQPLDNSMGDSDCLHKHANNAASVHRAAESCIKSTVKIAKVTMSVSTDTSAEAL
Experimental: The affinity of the compounds of formula I of the present invention towards cannabinoid CB1 receptors was determined as described in WO 2006/106054, page 36.

EC50 [1] [nM]	IC50 [2] [nM]	Compound
1200	> 10000	O=C(N[C@@H]1CCCC[C@@H]1O)c1cc(-c2ccc(Cl)cc2)c(OCC(F)(F)F)nc1C(F)(F)F [Example 4B, 5-(4-chloro-phenyl)-N-((1R,2S)-2-hydroxy-cyclohexyl)-6-(2,2,2-trifluoro-ethoxy)-2-trifluoromethyl-nicotinamide]
2500	> 10000	O=C(N[C@H]1CCCC[C@H]1O)c1cc(-c2ccc(Cl)cc2)c(OCC(F)(F)F)nc1C(F)(F)F [Example 4C, 5-(4-chloro-phenyl)-N-((1S,2R)-2-hydroxy-cyclohexyl)-6-(2,2,2-trifluoro-ethoxy)-2-trifluoromethyl-nicotinamide]
560	> 10000	CS(=O)(=O)Nc1ccc(-c2cc(C(=O)N[C@@H]3CCCC[C@H]3O)c(C(F)(F)F)nc2OCC(F)(F)F)cc1 [Example 6, N-((1R,2R)-2-hydroxy-cyclohexyl)-5-(4-methanesulfonylamino-phenyl)-6-(2,2,2-trifluoro-ethoxy)-2-trifluoromethyl-nicotinamide]
390	5600	O=C(N[C@@H]1CCCC[C@H]1O)c1cc(-c2ccc(Cl)cc2)c(OCC(F)(F)F)nc1C(F)(F)F [Example 4, 5-(4-chloro-phenyl)-N-((1R,2R)-2-hydroxy-cyclohexyl)-6-(2,2,2-trifluoro-ethoxy)-2-trifluoromethyl-nicotinamide]
1070	> 10000	CC(O)(CNC(=O)c1cc(-c2ccc(Cl)c(Cl)c2)c(OCC(F)(F)F)nc1C(F)(F)F)C1CC1 (stereo not shown) [Example 2, N-(2-cyclopropyl-2-hydroxy-propyl)-5-(3,4-dichloro-phenyl)-6-(2,2,2-trifluoro-ethoxy)-2-trifluoromethyl-nicotinamide]
480	> 10000	CC(O)(CNC(=O)c1cc(-c2cccc(Cl)c2)c(OCC(F)(F)F)nc1C(F)(F)F)C1CC1 (stereo not shown) [Example 3, 5-(3-chloro-phenyl)-N-(2-cyclopropyl-2-hydroxy-propyl)-6-(2,2,2-trifluoro-ethoxy)-2-trifluoromethyl-nicotinamide]
890	~10000	CC(C)CC(CO)NC(=O)c1cc(-c2ccc(NS(C)(=O)=O)cc2)c(OCc2ccccn2)nc1C(F)(F)F (stereo not shown) [Example 5, N-(1-hydroxymethyl-3-methyl-butyl)-5-(4-methanesulfonylamino-phenyl)-6-(pyridin-2-ylmethoxy)-2-trifluoromethyl-nicotinamide]
1400	> 10000	C[C@@](O)(CNC(=O)c1cc(-c2ccc(Cl)c(Cl)c2)c(OCC(F)(F)F)nc1C(F)(F)F)C1CC1 [Example 2B, N-((S)-2-cyclopropyl-2-hydroxy-propyl)-5-(3,4-dichloro-phenyl)-6-(2,2,2-trifluoro-ethoxy)-2-trifluoromethyl-nicotinamide]
1630	> 10000	C[C@](O)(CNC(=O)c1cc(-c2ccc(Cl)c(Cl)c2)c(OCC(F)(F)F)nc1C(F)(F)F)C1CC1 [Example 2A, N-((R)-2-cyclopropyl-2-hydroxy-propyl)-5-(3,4-dichloro-phenyl)-6-(2,2,2-trifluoro-ethoxy)-2-trifluoromethyl-nicotinamide]
640	> 10000	O=C(N[C@@H]1CCCC[C@H]1O)c1cc(-c2ccc(Cl)c(Cl)c2)c(OCc2ccccn2)nc1C(F)(F)F [Example 7, 5-(3,4-dichloro-phenyl)-N-((1R,2R)-2-hydroxy-cyclohexyl)-6-(pyridin-2-ylmethoxy)-2-trifluoromethyl-nicotinamide]

Compound	EC50 [1] [nM]	IC50 [2] [nM]
CC(O)(CNC(=O)c1cc(-c2ccc(Cl)cc2)c(OCC(F)(F)F)nc1C(F)(F)F)C1CC1 (stereo not shown) [Example 1, 5-(4-chloro-phenyl)-N-(2-cyclopropyl-2-hydroxy-propyl)-6-(2,2,2-trifluoro-ethoxy)-2-trifluoromethyl-nicotinamide]	450	~10000
